These cell lines were tested with CC(C)(C)c1nc(-c2cccc(NS(=O)(=O)c3c(F)cccc3F)c2F)c(-c2ccnc(N)n2)s1 [Dabrafenib] + Nc1nc2[nH]cc(CCc3ccc(C(=O)N[C@@H](CCC(=O)O)C(=O)O)cc3)c2c(=O)[nH]1 [Pemetrexed] (partner 0.2 µM) (assay: relative viability (nuclei count vs DMSO), 5 days (fraction); higher = more cells survive). Details: first compound 0.003 µM.
Summary of the method: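 Five library-drug doses in √10 steps were combined with a fixed anchor-drug dose, or a single drug was given alone, by pin tool to lung cancer cell lines in 1536-well plates the day after seeding. Nuclei were stained and counted after 5 days. Relative viability is the nuclei count in treated wells over that in vehicle wells, taken as the median of duplicate plates.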

Cell Line	relative viability
COR-L23	0.18
NCI-H1437	0.338
RERF-LC-KJ	0.491
NCI-H460	0.0599
H3255	0.564
SW 1573	0.79
NCI-H838	0.264
EPLC-272H	0.273
NCI-H3122	0.19
NCI-H1915	0.507
NCI-H1975	0.304
HCC-366	0.216
NCI-H661	0.942
NCI-H1993	0.575
NCI-H2009	0.997
NCI-H520	0.697
LXF-289	0.751
LC-2-ad	0.271
201T	0.332
NCI-H1666	0.787
NCI-H2023	0.229

Same assay, conditions: first compound 0.009487 µM

Cell Line	relative viability
EKVX	0.484
COR-L23	0.213
NCI-H1437	0.304
RERF-LC-KJ	0.525
NCI-H1734	0.417
BEN	0.764
NCI-H460	0.0868
H3255	0.593
SK-LU-1	1.06
NCI-H23	0.67
SW 1573	0.9
NCI-H838	0.252
EPLC-272H	0.271
NCI-H3122	0.195
NCI-H1915	0.451
NCI-H1975	0.282
HCC-366	0.0959

Cell Line	relative viability
NCI-H2087	0.64
LCLC-97TM1	0.198
NCI-H661	0.934
NCI-H2405	0.967
NCI-H1993	0.571
PC-3 [JPC-3]	1.24
NCI-H2009	0.956
NCI-H2347	0.445
NCI-H520	0.6
LXF-289	0.872
LC-2-ad	0.283
201T	0.352
NCI-H1666	0.864
NCI-H2023	0.247
NCI-H322M	0.711
HARA	0.221

Same assay, conditions: first compound 0.03 µM

Cell Line	relative viability
EKVX	0.419
COR-L23	0.193
NCI-H1437	0.318
RERF-LC-KJ	0.477
NCI-H1734	0.397
NCI-H460	0.0634
H3255	0.607
SK-LU-1	0.898
NCI-H23	0.504
SW 1573	0.792
NCI-H838	0.239
EPLC-272H	0.304
NCI-H3122	0.214
NCI-H1915	0.457
NCI-H1975	0.272
HCC-366	0.172

Cell Line	relative viability
NCI-H2087	0.662
LCLC-97TM1	0.198
NCI-H661	0.876
NCI-H2405	0.687
NCI-H1993	0.619
PC-3 [JPC-3]	1.12
NCI-H2009	0.818
NCI-H2347	0.362
NCI-H520	0.625
LXF-289	0.965
LC-2-ad	0.25
201T	0.332
NCI-H1666	0.877
NCI-H2023	0.207
HARA	0.252

Same assay, conditions: first compound 0.09487 µM

Cell Line	relative viability
EKVX	0.408
COR-L23	0.209
NCI-H1437	0.324
RERF-LC-KJ	0.501
NCI-H1734	0.421
BEN	0.846
NCI-H460	0.0648
H3255	0.511
SK-LU-1	0.865
NCI-H23	0.7
SW 1573	0.777
NCI-H838	0.239
EPLC-272H	0.262
NCI-H3122	0.203
NCI-H1915	0.272
NCI-H1975	0.28
HCC-366	0.124

Cell Line	relative viability
NCI-H2087	0.695
LCLC-97TM1	0.124
NCI-H661	0.931
NCI-H2405	0.878
NCI-H1993	0.55
PC-3 [JPC-3]	1.05
NCI-H2009	0.761
NCI-H2347	0.399
NCI-H520	0.669
LXF-289	0.813
LC-2-ad	0.269
201T	0.307
NCI-H1666	0.97
NCI-H2023	0.211
NCI-H322M	0.602
HARA	0.238

Same assay, conditions: first compound 0.3 µM

Cell Line	relative viability
EKVX	0.395
COR-L23	0.196
NCI-H1437	0.321
RERF-LC-KJ	0.536
NCI-H1734	0.411
BEN	0.908
NCI-H460	0.0684
H3255	0.643
SK-LU-1	0.715
NCI-H23	0.597
SW 1573	0.782
NCI-H838	0.245
EPLC-272H	0.488
NCI-H3122	0.215
NCI-H1915	0.372
NCI-H1975	0.292
HCC-366	0.193
